Results reported in patent US20100160301A1, “MICROANGIOPATHY TREATMENT AND PREVENTION” (BAYER HEALTHCARE AG, priority 2005, published 2010).

What was measured:
[1] = system: thrombus formation in an arteriovenous shunt; experiment: Arteriovenous shunt model (rat), antithrombotic action; format: in vivo; conditions: oral dosage, read-out: ED50 [mg/kg] p.o.
Description: Fasting male rats (strain: HSD CPB:WU) having a weight of 200-250 g are anesthetized using a Rompun/Ketavet solution (12 mg/kg/50 mg/kg). Thrombus formation is induced in an arteriovenous shunt following the method described by Christopher N. Berry et al., Br. J. Pharmacol. (1994), 113, 1209-1214. For this, the left jugular vein and the right carotid artery are exposed. An extracorporeal shunt is arranged between the two vessels by means of a 10 cm long polyethylene tube (PE 60). This polyethylene tube was linked in the center to a further 3 cm long polyethylene tube (PE 160), which contained a nylon thread which was roughened and linked to a loop for the production of a thrombogenic surface. The extracorporeal circulation is maintained for 15 minutes. The shunt is then removed and the nylon thread with the thrombus is immediately weighed. The unloaded weight of the nylon thread had been determined before the start of the experiment. Before starting the extracorporeal circulation, test substances are administered to conscious animals either intravenously via the caudal vein or orally by means of stomach tube.

Structure (SMILES): O=C(NC[C@H]1CN(c2ccc(N3CCCOC3=O)cc2)C(=O)O1)c1ccc(Cl)s1 [Example 255]
- melting point: 228 to 230 °C

Structure (SMILES): O=C(NC[C@H]1CN(c2ccc(N3CCOCC3=O)cc2)C(=O)O1)c1ccc(Cl)s1 [Example 44, 5-Chloro-N-({(5S)-2-oxo-3-[4-(3-oxo-4-morpholinyl)phenyl]-1,3-oxazolidin-5-yl}methyl)-2-thiophenecarboxamide]
- ED50 [1]: 3 mg/kg
